Where two headings read alike, the source gives them in different places. Each block holds one compound with its values, some of them ahead of it.
Tests used:
OVCAR-5 = test: NCI in vitro anti-cancer activity, Ovarian Cancer; assay type: cell-based
PC-3 = test: NCI in vitro anti-cancer activity, Prostate Cancer; assay type: cell-based
HCT-116 = test: NCI in vitro anti-cancer activity, Colon Cancer; assay type: cell-based
NCI-H23 = assay type: cell-based
SNB-75 = test: NCI in vitro anti-cancer activity, CNS Cancer; assay type: cell-based
HCT-15 = test: NCI in vitro anti-cancer activity, Colon Cancer; assay type: cell-based
R30dm cells = test: Growth inhibition of R30dm subline (decreased polyglutamate synthase); assay type: cell-based; conditions: Homo sapiens, Table 8, continuous (0-120 hours) exposure, read-out: Growth inhibition EC50, R30dm
HT29 = test: NCI in vitro anti-cancer activity, Colon Cancer; assay type: cell-based
A549/ATCC = assay type: cell-based
A253 = test: Growth inhibition of A253 human squamous carcinoma cell line; assay type: cell-based; conditions: Table 9, continuous (120 hours) exposure
Method: The performance of these compounds was evaluated against MTX.

MALME-3M = test: NCI in vitro anti-cancer activity, Melanoma; assay type: cell-based
SN12C = test: NCI in vitro anti-cancer activity, Renal Cancer; assay type: cell-based
HS 578T = test: NCI in vitro anti-cancer activity, Breast Cancer; assay type: cell-based
DU-145 = test: NCI in vitro anti-cancer activity, Prostate Cancer; assay type: cell-based
EKVX = assay type: cell-based
SW-620 = test: NCI in vitro anti-cancer activity, Colon Cancer; assay type: cell-based
OVCAR-4 = test: NCI in vitro anti-cancer activity, Ovarian Cancer; assay type: cell-based
SF-268 = test: NCI in vitro anti-cancer activity, CNS Cancer; assay type: cell-based
NCI-H226 = assay type: cell-based
OVCAR-8 = test: NCI in vitro anti-cancer activity, Ovarian Cancer; assay type: cell-based
OVCAR-3 = test: NCI in vitro anti-cancer activity, Ovarian Cancer; assay type: cell-based
MCF7/ADR-RES = test: NCI in vitro anti-cancer activity, Breast Cancer; assay type: cell-based; conditions: Homo sapiens
CAKI-1 = test: NCI in vitro anti-cancer activity, Renal Cancer; assay type: cell-based
SK-MEL-2 = test: NCI in vitro anti-cancer activity, Melanoma; assay type: cell-based
KM12 = test: NCI in vitro anti-cancer activity, Colon Cancer; assay type: cell-based
MOLT-4 = test: NCI in vitro anti-cancer activity, Leukemia; assay type: cell-based; conditions: Table 29, Leukemia
SK-MEL-5 = test: NCI in vitro anti-cancer activity, Melanoma; assay type: cell-based; conditions: Table 29, Melanoma
NCI/ADR-RES = test: NCI in vitro anti-cancer activity, breast cancer; conditions: Table 29, Breast Cancer, NCI/ADRRES
HL-60 (TB) = test: NCI in vitro anti-cancer activity, Leukemia; assay type: cell-based; conditions: Table 29, Leukemia
NCI-H460 = assay type: cell-based; conditions: Table 29, Non-Small Cell Lung Cancer
K-562 = test: NCI in vitro anti-cancer activity; conditions: Table 29, Leukemia
A498 = test: NCI in vitro anti-cancer activity, renal cancer
RPMI-8226 = test: NCI in vitro anti-cancer activity, Leukemia; assay type: cell-based; conditions: Table 29, Leukemia
UACC-257 = test: NCI in vitro anti-cancer activity, Melanoma; assay type: cell-based; conditions: Table 29, Melanoma
CCRF-CEM = test: NCI in vitro anti-cancer activity, Leukemia; assay type: cell-based; conditions: Table 29, Leukemia
[1] = Table 29, Prostate Cancer, PC-3
[2] = Table 29, Non-Small Cell Lung Cancer, NCI-H23
[3] = Table 29, Non-Small Cell Lung Cancer
[4] = Table 29, Prostate Cancer, DU-145
[5] = Table 29, Non-Small Cell Lung Cancer, read-out: GI50
[6] = Table 29, Ovarian Cancer, OVCAR-4
[7] = Table 29, Non-Small Cell Lung Cancer, NCI-H226
[8] = Table 29, Ovarian Cancer, OVCAR-8
[9] = Table 29, Ovarian Cancer, OVCAR-3
[10] = Table 29, Ovarian Cancer, OVCAR-5

GI50 (NCI-H23; Homo sapiens, NCI-H23, Non-Small Cell Lung Cancer): 0.0575 µM
GI50 (A549/ATCC; Homo sapiens, Non-Small Cell Lung Cancer): < 0.01 µM
EC50 (A253): 0.046 ± 0.004 µM
GI50 (NCI-H226; Homo sapiens, NCI-H226, Non-Small Cell Lung Cancer): > 100 µM
Compound: Nc1nc(N)c2c(CNc3ccc(C(=O)N[C@@H](CCC(=O)O)C(=O)O)cc3)c[nH]c2n1 [Compound 9]
GI50 (OVCAR-5; Homo sapiens, OVCAR-5, Ovarian Cancer): > 100 µM
GI50 (PC-3; Homo sapiens, PC-3, Prostate Cancer): > 100 µM
GI50 (HCT-116; Homo sapiens): < 0.01 µM
GI50 (SNB-75; Homo sapiens, SNB-75, CNS Cancer): < 0.01 µM
GI50 (HCT-15; Homo sapiens, HCT-15, Colon Cancer): < 0.01 µM
EC50 (R30dm cells): 0.036 ± 0.001 µM
GI50 (HT29; Homo sapiens, HT-29, HT29, Colon Cancer): < 0.01 µM
GI50 (MALME-3M; Homo sapiens, Melanoma): < 0.01 µM
GI50 (SN12C; Homo sapiens, Renal Cancer): < 0.01 µM
GI50 (HS 578T; Homo sapiens, Breast Cancer): > 100 µM
GI50 (DU-145; Homo sapiens, DU-145, Prostate Cancer): 0.0109 µM
GI50 (EKVX; Homo sapiens, Non-Small Cell Lung Cancer, read-out: GI50): 39.7 µM
GI50 (SW-620; Homo sapiens, SW-620, Colon Cancer): 3.15 µM
GI50 (OVCAR-4; Homo sapiens, OVCAR-4, Ovarian Cancer): > 100 µM
GI50 (SF-268; Homo sapiens, SF-268, CNS Cancer): < 0.01 µM
GI50 (OVCAR-8; Homo sapiens, OVCAR-8, Ovarian Cancer): < 0.01 µM
GI50 (OVCAR-3; Homo sapiens, OVCAR-3, Ovarian Cancer): > 100 µM
GI50 (MCF7/ADR-RES): < 0.01 µM
GI50 (CAKI-1; Homo sapiens, CAKI-1, Renal Cancer): < 0.01 µM
GI50 (SK-MEL-2; Homo sapiens, SK-MEL-2, Melanoma): > 100 µM
GI50 (KM12; Homo sapiens, KM12, Colon Cancer): 33.2 µM

Compound: COc1cc(CCc2c[nH]c3nc(N)nc(C)c23)cc(OC)c1OC [Compound 113-154A]
GI50 (PC-3; [1]): 22.2 µM
GI50 (HCT-116; Table 29, Colon Cancer): 36.8 µM
GI50 (NCI-H23; [2]): 26.9 µM
GI50 (SNB-75; Table 29, CNS Cancer, SNB-75): 27.5 µM
GI50 (MOLT-4): 38.7 µM
GI50 (HCT-15; Table 29, Colon Cancer, HCT-15): 24.3 µM
GI50 (HT29; Table 29, Colon Cancer, HT29): 10 µM
GI50 (SK-MEL-5): 37.3 µM
GI50 (A549/ATCC; [3]): 26.1 µM
GI50 (MALME-3M; Table 29, Melanoma): 47.4 µM
GI50 (SN12C; Table 29, Renal Cancer): 43.1 µM
GI50 (NCI/ADR-RES): 25.9 µM
GI50 (HL-60 (TB)): 41.8 µM
GI50 (HS 578T; Table 29, Breast Cancer): 27 µM
GI50 (NCI-H460): 19.3 µM
GI50 (DU-145; [4]): 75.6 µM
GI50 (EKVX; Non-Small Cell Lung Cancer): selective
GI50 (EKVX; [5]): 5.21 µM
GI50 (K-562): 23 µM
GI50 (A498; A498 renal cancer cell line): selective
GI50 (A498; Table 29, Renal Cancer, A498): 0.845 µM
GI50 (RPMI-8226): 67.4 µM
GI50 (OVCAR-4; [6]): 77.8 µM
GI50 (SF-268; Table 29, CNS Cancer, SF-268): 39.5 µM
GI50 (NCI-H226; [7]): 23 µM
GI50 (OVCAR-8; [8]): 31.1 µM
GI50 (OVCAR-3; [9]): 74.8 µM
GI50 (CAKI-1; Table 29, Renal Cancer, CAKI-1): 49.5 µM
GI50 (SK-MEL-2; Table 29, Melanoma, SK-MEL-2): 98.3 µM
GI50 (UACC-257): 56.4 µM
GI50 (KM12; Table 29, Colon Cancer, KM12): 46.5 µM

Compound: COc1ccc(CCc2cn(Cc3ccccc3)c3nc(N)nc(C)c23)cc1 [Compound 113-118]
GI50 (OVCAR-5; [10]): > 100 µM
GI50 (PC-3; [1]): 64 µM
GI50 (HCT-116; Table 29, Colon Cancer): 48.3 µM
GI50 (NCI-H23; [2]): 97.3 µM
GI50 (SNB-75; Table 29, CNS Cancer, SNB-75): > 100 µM
GI50 (HCT-15; Table 29, Colon Cancer, HCT-15): 51.4 µM
GI50 (HT29; Table 29, Colon Cancer, HT29): 48.4 µM
GI50 (A549/ATCC; [3]): 99.8 µM
GI50 (MALME-3M; Table 29, Melanoma): 19.5 µM
GI50 (SN12C; Table 29, Renal Cancer): > 100 µM
GI50 (HL-60 (TB)): > 100 µM
GI50 (HS 578T; Table 29, Breast Cancer): < 100 µM
GI50 (NCI-H460): 42.5 µM
GI50 (DU-145; [4]): > 100 µM
GI50 (SW-620; Table 29, Colon Cancer, SW-620): > 100 µM
GI50 (CCRF-CEM): > 100 µM
GI50 (A498; Table 29, Renal Cancer, A498): 14.2 µM
GI50 (RPMI-8226): > 100 µM
GI50 (OVCAR-4; [6]): 80.1 µM
GI50 (SF-268; Table 29, CNS Cancer, SF-268): > 100 µM
GI50 (NCI-H226; [7]): > 100 µM
GI50 (OVCAR-8; [8]): 52.5 µM
GI50 (OVCAR-3; [9]): > 100 µM
GI50 (CAKI-1; Table 29, Renal Cancer, CAKI-1): > 100 µM
GI50 (SK-MEL-2; Table 29, Melanoma, SK-MEL-2): > 100 µM
GI50 (KM12; Table 29, Colon Cancer, KM12): 48.4 µM

Compound: COc1ccccc1CCc1cn(Cc2ccccc2)c2nc(N)nc(C)c12 [Compound 113-148]
GI50 (OVCAR-5; [10]): 10.8 µM
GI50 (PC-3; [1]): 9.47 µM
GI50 (HCT-116; Table 29, Colon Cancer): 4.51 µM
GI50 (NCI-H23; [2]): 8.47 µM
GI50 (SNB-75; Table 29, CNS Cancer, SNB-75): 17.6 µM
GI50 (MOLT-4): 7.46 µM
GI50 (HT29; Table 29, Colon Cancer, HT29): 4.77 µM
GI50 (SK-MEL-5): 5.8 µM
GI50 (A549/ATCC; [3]): 6.46 µM
GI50 (MALME-3M; Table 29, Melanoma): 18.6 µM
GI50 (SN12C; Table 29, Renal Cancer): 13.3 µM
GI50 (NCI/ADR-RES): 6.75 µM
GI50 (HL-60 (TB)): 4.81 µM
GI50 (HS 578T; Table 29, Breast Cancer): 14.9 µM
GI50 (NCI-H460): 7.7 µM
GI50 (DU-145; [4]): 13.1 µM
GI50 (EKVX; [5]): 5.78 µM
GI50 (SW-620; Table 29, Colon Cancer, SW-620): 17.1 µM
GI50 (K-562): 5.91 µM
GI50 (CCRF-CEM): 2.97 µM
GI50 (A498; Table 29, Renal Cancer, A498): 1.94 µM
GI50 (OVCAR-4; [6]): 8.88 µM
GI50 (SF-268; Table 29, CNS Cancer, SF-268): 11 µM
GI50 (NCI-H226; [7]): 12.4 µM
GI50 (OVCAR-8; [8]): 17.6 µM
GI50 (OVCAR-3; [9]): 14.8 µM
GI50 (CAKI-1; Table 29, Renal Cancer, CAKI-1): 11.6 µM
GI50 (SK-MEL-2; Table 29, Melanoma, SK-MEL-2): 13.1 µM
GI50 (UACC-257): 6.36 µM
GI50 (KM12; Table 29, Colon Cancer, KM12): 12.2 µM

— US6962920B2, “Pyrimidine derivatives and methods of making and using these derivatives” (Duquesne University of the Holy Ghost, priority 1992, dated 2005)
